Laboratory results published in US12660819B2, “Herbicidal derivatives” (SYNGENTA CROP PROTECTION AG, priority 2020, dated 2026).

Tests used:
Assay type in all cases: in vivo
[1] = tested on: Abutilon theophrasti (ABUTH); test: Post-emergence Test (glasshouse, percentage damage to the plant); settings: post-emergence spray, 1000 g/ha unless otherwise stated, evaluated after 13 days
In short: (§1)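 Rate 1000 g/ha unless stated otherwise. Vehicle: acetone/water 50:50 with 0.5% Tween 20, diluted into aqueous spray. Timing: spray after sowing, read 13 days later. Score: 5=81-100%, 4=61-80%, 3=41-60%, 2=21-40%, 1=0-20% damage.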

[2] = tested on: Amaranthus retoflexus (AMARE); test: as above; settings: 1000 g/ha unless otherwise stated, evaluated after 13 days; for Post-emergence Test AMARE, percentage damage to the plant (five-point scale): post-emergence spray
In short: as §1

[3] = tested on: Echinochloa crus-galli (ECHCG); test: as above; settings: post-emergence spray, 1000 g/ha unless otherwise stated, evaluated after 13 days
In short: as §1

[4] = tested on: Ipomoea hederacea (IPOHE); test: as above; settings: 1000 g/ha unless otherwise stated, evaluated after 13 days; for Post-emergence Test IPOHE, percentage damage to the plant (five-point scale): post-emergence spray
In short: (§2)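 Sown pots; spray 1000 g/ha (unless stated) in acetone/water 50:50 + 0.5% Tween 20; glasshouse 24/16 °C, 14 h light, 65% RH; watered twice daily; % damage read at 13 days, scored 1–5.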

Setaria faberi (SETFA) [5] = test: as above; settings: 1000 g/ha unless otherwise stated, evaluated after 13 days; for Post-emergence Test SETFA, percentage damage to the plant (five-point scale): post-emergence spray
In short: as §2

Zea mays (ZEAMX) [6] = test: as above; settings: 1000 g/ha unless otherwise stated, evaluated after 13 days; for Post-emergence Test ZEAMX, percentage damage to the plant (five-point scale): post-emergence spray
In short: as §2

[7] = tested on: Amaranthus retoflexus (AMARE); test: Pre-emergence Test (glasshouse, percentage damage to the plant); settings: 1000 g/ha unless otherwise stated; for percentage damage to the plant, AMARE: five-point scale
Setaria faberi (SETFA) [8] = test: as above; settings: 1000 g/ha unless otherwise stated; for percentage damage to the plant, SETFA: five-point scale
[9] = tested on: Echinochloa crus-galli (ECHCG); test: as above; settings: 1000 g/ha unless otherwise stated; for percentage damage to the plant, ECHCG: five-point scale
[10] = tested on: Ipomoea hederacea (IPOHE); test: as above; settings: 1000 g/ha unless otherwise stated; for percentage damage to the plant, IPOHE: five-point scale
[11] = tested on: Abutilon theophrasti (ABUTH); test: as above; settings: 1000 g/ha unless otherwise stated, five-point scale
Zea mays (ZEAMX) [12] = test: as above; settings: 1000 g/ha unless otherwise stated; for percentage damage to the plant, ZEAMX: five-point scale
[13] = tested on: Amaranthus palmeri (AMAPA); test: Post-emergence Test (glasshouse, percentage damage to the plant); settings: 1000 g/ha unless otherwise stated, evaluated after 13 days
In short: as §1

[14] = tested on: Amaranthus palmeri (AMAPA); test: Pre-emergence Test (glasshouse, percentage damage to the plant); settings: 1000 g/ha unless otherwise stated

SMILES | Post-emergence Test ABUTH, percentage damage to the plant (five-point scale) [1] | Post-emergence Test AMARE, percentage damage to the plant (five-point scale) [2] | Post-emergence Test ECHCG, percentage damage to the plant (five-point scale) [3] | Post-emergence Test IPOHE, percentage damage to the plant (five-point scale) [4] | Post-emergence Test SETFA, percentage damage to the plant (five-point scale) (Setaria faberi (SETFA) [5]) | Post-emergence Test ZEAMX, percentage damage to the plant (five-point scale) (Zea mays (ZEAMX) [6]) | percentage damage to the plant, AMARE [7] | percentage damage to the plant, SETFA (Setaria faberi (SETFA) [8]) | percentage damage to the plant, ECHCG [9] | percentage damage to the plant, IPOHE [10] | percentage damage to the plant, ABUTH [11] | percentage damage to the plant, ZEAMX (Zea mays (ZEAMX) [12]) | also measured
CCn1c(C)c(-c2ccc(F)cc2OC)c(=O)c(C(=O)O)c1-c1ccc(Cl)c(Cl)c1 [Compound 157, 2-(3,4-dichlorophenyl)-1-ethyl-5-(4-fluoro-2-methoxy-phenyl)-6-methyl-4-oxo-pyridine-3-carboxylic acid] | 4 (4=61-80%) | 1 (1=0-20%) | 4 (4=61-80%) | 4 (4=61-80%) | 4 (4=61-80%) | 4 (4=61-80%) | 0 | 5 (5=81-100%) | 4 (4=61-80%) | 2 (2=21-40%) | 4 (4=61-80%) | 3 (3=41-60%) | 
CCn1c(C)c(-c2ccc(Cl)cc2SC)c(=O)c(C(=O)O)c1-c1ccc(Cl)c(Cl)c1 [Compound 158, 5-(4-chloro-2-methylsulfanyl-phenyl)-2-(3,4-dichlorophenyl)-1-ethyl-6-methyl-4-oxo-pyridine-3-carboxylic acid] |  | 4 (4=61-80%) |  | 2 (2=21-40%) | 1 (1=0-20%) | 1 (1=0-20%) | 0 | 0 | 0 | 0 |  | 0 | Post-emergence Test AMAPA, percentage damage to the plant (five-point scale) ([13]; post-emergence spray): 5 (5=81-100%); percentage damage to the plant, AMAPA ([14]; five-point scale): 3 (3=41-60%)
CCn1c(C)c(-c2cccs2)c(=O)c(C(=O)O)c1-c1ccc(Cl)cc1 [Compound 165, 2-(4-chlorophenyl)-1-ethyl-6-methyl-4-oxo-5-(2-thienyl)pyridine-3-carboxylic acid] | 2 (2=21-40%) | 0 | 0 | 2 (2=21-40%) | 1 (1=0-20%) | 1 (1=0-20%) | 1 (1=0-20%) | 0 | 0 | 1 (1=0-20%) | 1 (1=0-20%) | 0 | 
CCn1c(C)c(-c2ccc(Cl)s2)c(=O)c(C(=O)O)c1-c1ccc(Cl)cc1 [Compound 166, 2-(4-chlorophenyl)-5-(5-chloro-2-thienyl)-1-ethyl-6-methyl-4-oxo-pyridine-3-carboxylic acid] | 3 (3=41-60%) | 2 (2=21-40%) | 2 (2=21-40%) | 1 (1=0-20%) | 3 (3=41-60%) | 1 (1=0-20%) | 1 (1=0-20%) | 0 | 0 | 1 (1=0-20%) | 1 (1=0-20%) | 0 | 
CCn1c(C)c(-c2cc(C)cs2)c(=O)c(C(=O)O)c1-c1ccc(Cl)cc1 [Compound 167, 2-(4-chlorophenyl)-1-ethyl-6-methyl-5-(4-methyl-2-thienyl)-4-oxo-pyridine-3-carboxylic acid] | 4 (4=61-80%) | 0 | 1 (1=0-20%) | 3 (3=41-60%) | 2 (2=21-40%) | 1 (1=0-20%) | 1 (1=0-20%) | 2 (2=21-40%) | 0 | 1 (1=0-20%) | 3 (3=41-60%) | 3 (3=41-60%) | 
CCn1c(C)c(-c2cnccn2)c(=O)c(C(=O)O)c1-c1ccc(Cl)cn1 [Compound 168, 2-(5-chloro-2-pyridyl)-1-ethyl-6-methyl-4-oxo-5-pyrazin-2-yl-pyridine-3-carboxylic acid] | 0 | 0 | 0 | 0 | 0 | 0 | 0 | 0 | 0 | 0 | 0 | 0 | 
CCn1c(C)c(-c2ccnnc2)c(=O)c(C(=O)O)c1-c1ccc(Cl)cc1 [Compound 180, 2-(4-chlorophenyl)-1-ethyl-6-methyl-4-oxo-5-pyridazin-4-yl-pyridine-3-carboxylic acid] | 0 | 0 | 0 | 2 (2=21-40%) | 0 | 0 | 0 | 0 | 0 | 0 | 0 | 0 | 
CCn1c(C)c(-c2cc(F)ccc2C)c(=O)c(C(=O)O)c1-c1ccc(Cl)c(Cl)c1 [Compound 222, 2-(3,4-dichlorophenyl)-1-ethyl-5-(5-fluoro-2-methyl-phenyl)-6-methyl-4-oxo-pyridine-3-carboxylic acid] |  |  |  |  |  |  |  |  |  |  |  |  | AMAPA, percentage damage caused to the plant (five-point scale) ([13]; post-emergence): 5 (5=81-100%); AMARE, percentage damage caused to the plant (five-point scale) ([2]; post-emergence): 3 (3=41-60%); IPOHE, percentage damage caused to the plant (five-point scale) ([4]; post-emergence): 3 (3=41-60%); SETFA, percentage damage caused to the plant (five-point scale) (Setaria faberi (SETFA) [5]; post-emergence): 3 (3=41-60%); ZEAMX, percentage damage caused to the plant (five-point scale) (Zea mays (ZEAMX) [6]; post-emergence): 1 (1=0-20%); percentage damage to the plant, AMARE (five-point scale) ([7]; Amaranthus retoflexus): 1 (1=0-20%); percentage damage to the plant, SETFA (five-point scale) (Setaria faberi (SETFA) [8]; Setaria faberi): 1 (1=0-20%); percentage damage to the plant, ECHCG (five-point scale) ([9]; Echinochloa crus-galli): 1 (1=0-20%); percentage damage to the plant, IPOHE (five-point scale) ([10]; Ipomoea hederacea): 1 (1=0-20%); percentage damage to the plant, ZEAMX (five-point scale) (Zea mays (ZEAMX) [12]; Zea mays): 1 (1=0-20%); percentage damage to the plant, AMAPA (five-point scale) ([14]; Amaranthus palmeri): 1 (1=0-20%)
